The values below come from publication PMC4438668, “Quantitative High-Throughput Identification of Drugs as Modulators of Human Constitutive Androstane Receptor” (Scientific Reports, 2015).

Data set [1] addresses T1, human CAR (hCAR) (Homo sapiens, UniProt Q14994).
T1 sequence (Q14994 1-348 isoform Q14994-2): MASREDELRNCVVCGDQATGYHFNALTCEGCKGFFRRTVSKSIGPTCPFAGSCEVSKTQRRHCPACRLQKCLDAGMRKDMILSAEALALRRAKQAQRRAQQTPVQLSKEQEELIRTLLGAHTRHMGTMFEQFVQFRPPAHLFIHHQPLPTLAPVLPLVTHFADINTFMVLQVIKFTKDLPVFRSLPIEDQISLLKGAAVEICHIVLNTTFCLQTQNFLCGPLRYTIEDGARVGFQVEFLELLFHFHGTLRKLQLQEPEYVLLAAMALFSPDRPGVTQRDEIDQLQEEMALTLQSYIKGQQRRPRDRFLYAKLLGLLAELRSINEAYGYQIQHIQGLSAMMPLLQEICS
The data set can be described thus: hCAR luciferase reporter qHTS, antagonist mode (HepG2-CYP2B6-hCAR cells, CITCO co-treatment).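 On all read-outs here: stable HepG2 line carrying hCAR plus a CYP2B6 promoter (PBREM/XREM) luciferase reporter, 1536-well format, 24 h compound exposure at 37 °C, then luminescence read with ONE-Glo.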 To be noted: for Identified as hCAR antagonist/deactivator in the qHTS: primary qHTS of 2816 NPC compounds; for IC50 / Follow-up Confirmation Efficacy / Primary Screen Efficacy: antagonist mode; for Follow-up Confirmation Efficacy / Primary Screen Efficacy: relative to PK11195 (100%).
Protocol: The pEF6/V5-hCAR expression plasmid and the pGL4.17[luc2/Neo]-CYP2B6-2.2kb construct containing both the PBREM and XREM[40], were co-transfected in HepG2 cells using lipofectamine 2000 reagents (Life Technologies) following the manufacturer’s instruction. Dulbecco’s Modified Eagle Medium (DMEM) containing 10% FBS, 100 U/ml penicillin, 100 μg/ml streptomycin, G418 (0.6-1 mg/ml) and blasticidin (10 μg/ml) were used for the selection of colonies containing a mixed population of drug resistant cells. Subsequently, these cells were transferred to collagen-coated 48-well plates and continually cultured in the same media. Single colony containing both plasmids was selected and functionally verified.
The generated stable cell line, namely HepG2-CYP2B6-hCAR, was used to identify hCAR modulators in a qHTS platform. Assays were run in both agonist and antagonist modes. In brief, HepG2-CYP2B6-hCAR cells were dispensed at 2,500 cells/well in 1,536-well plates (Greiner Bio-One North America, Monroe, NC) using a Multidrop Combi (Thermo Fisher Scientific Inc., Waltham, MA). […] The assays were incubated at 37 °C for 24 h followed by the addition of 4 μl of the ONE-Glo luciferase reagent (Promega, Madision, WI). The assay plates were incubated at room temperature for 20 min and luminescence intensity was quantified using a ViewLux plate reader (PerkinElmer, Shelton, CT).
(§1) Concentration-response titration points for each compound were then fitted to the Hill equation, yielding half-maximal inhibition (IC50) or activation (EC50) and maximal response (efficacy) values. Compounds from the primary qHTS screen were classified into four major curve classes according to quality of curve fit, potency and efficacy. Class 1.1, 1.2, 2.1, and 2.2 curves were high-quality and thus high-confidence concentration-response curves (CRCs). […] All other curve classes (including those curves with single point activity) were deemed inconclusive. […] Follow-up studies were performed using a new aliquot of samples to confirm sample integrity and assay reproducibility.
All of these compounds were retested in both HepG2-CYP2B6-hCAR and cell viability assays.

A further data set relates to CYP3A4. The data set can be described thus: CYP3A4 mRNA expression in HPH (real-time PCR). It counts as cell-based, human. The settings on record: HPH, 24 h, vs vehicle control (0.1% DMSO).
For the next data set, the system named is CYP2B6. The data set can be described thus: CYP2B6 mRNA expression in HPH (real-time PCR). The settings on record: HPH, 24 h, vs vehicle control (0.1% DMSO).
Data set [2] has as its target T1, human CAR (hCAR). Kind of data set: hCAR luciferase reporter qHTS, agonist mode (HepG2-CYP2B6-hCAR cells, PK11195 co-treatment).
Protocol: The generated stable cell line, namely HepG2-CYP2B6-hCAR, was used to identify hCAR modulators in a qHTS platform. Assays were run in both agonist and antagonist modes. In brief, HepG2-CYP2B6-hCAR cells were dispensed at 2,500 cells/well in 1,536-well plates (Greiner Bio-One North America, Monroe, NC) using a Multidrop Combi (Thermo Fisher Scientific Inc., Waltham, MA). […] Each NPC compound was tested at 8 concentrations ranging from 0.6 nM to 38.3 μM. The assays were incubated at 37 °C for 24 h followed by the addition of 4 μl of the ONE-Glo luciferase reagent (Promega, Madision, WI). The assay plates were incubated at room temperature for 20 min and luminescence intensity was quantified using a ViewLux plate reader (PerkinElmer, Shelton, CT).
as §1
These compounds were prepared in 1536-well compound plates at 11-point 3-fold dilution titrations in DMSO, with final concentrations ranging from 0.6 nM to 38.3 μM. All of these compounds were retested in both HepG2-CYP2B6-hCAR and cell viability assays.
For a further data set, the system named is HepG2-CYP2B6-hCAR cells. The data set can be described thus: Cell viability assay (CellTiter-Glo ATP quantitation). Format: cell-based, human. Further details: key to Cytotoxicity (activity call): Inactive: considered inactive if efficacy is less than 30%. To be noted: 24 h. How it is done:
The potential cytotoxicity of the NPC compounds in HepG2-CYP2B6-hCAR cells was measured using a luciferase-coupled ATP quantitation assay (CellTiter-Glo viability assay, Promega). The change of intracellular ATP content indicates the number of metabolically competent cells. The cells were seeded at 2,500 cells/5 μl in 1536-well plates and were exposed to each test compound at concentrations and treatment duration as previously mentioned. The assay plates were incubated for 24 h at 37 °C, followed by the addition of 4 μl/well of CellTiter-Glo reagent. After 30 min incubation at RT, the luminescence intensity of the plates was measured using a ViewLux plate reader.

For another data set, the target named is T2, hPXR (Homo sapiens, UniProt O75469).
T2 construct: expressed in transfected cells; host or cells: HepG2 (transient transfection)
T2 sequence (O75469 1-434): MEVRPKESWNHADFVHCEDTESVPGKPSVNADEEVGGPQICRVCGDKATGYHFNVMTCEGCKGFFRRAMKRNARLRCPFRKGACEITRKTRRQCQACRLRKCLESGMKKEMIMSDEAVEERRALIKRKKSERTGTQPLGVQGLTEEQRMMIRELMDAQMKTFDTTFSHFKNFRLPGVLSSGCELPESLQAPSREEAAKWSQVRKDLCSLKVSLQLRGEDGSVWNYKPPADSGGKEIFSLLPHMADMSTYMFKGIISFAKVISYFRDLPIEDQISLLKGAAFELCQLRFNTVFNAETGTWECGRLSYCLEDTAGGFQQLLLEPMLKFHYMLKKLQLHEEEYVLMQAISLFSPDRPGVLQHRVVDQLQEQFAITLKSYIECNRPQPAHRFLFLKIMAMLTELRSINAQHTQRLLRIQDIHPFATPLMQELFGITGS
Kind of data set: Transient hPXR luciferase assay in HepG2 cells (CYP2B6-2.2 kb reporter). It counts as cell-based. To be noted: HepG2, 24 h, in the presence or absence of rifampicin (10 μM). How it is done: HepG2 cells cultured in a 24-well plate were co-transfected with the CYP2B6-2.2 kb reporter and hPXR expression vectors using a Lipofectamine® 2000 Transfection Kit (Life Technologies) following the manufacturer’s instruction. […] Cell lysates were assayed for firefly luciferase activities normalized against the activities of co-transfected Renilla luciferase using a Dual-Luciferase Kit (Promega). Data were represented as mean±SD of three individual transfections.

In another data set the target is T3, EYFP-hCAR (Homo sapiens, UniProt Q14994).
T3 construct: expressed in transfected cells; host or cells: human primary hepatocytes infected with Ad/EYFP-hCAR
T3 sequence (Q14994 1-348 isoform Q14994-2): T1 sequence (Q14994 1-348 isoform Q14994-2)
Kind of data set: Nuclear translocation of Ad/EYFP-hCAR in human primary hepatocytes. To be noted: HPH, 1 mM. Format: cell-based. How it is done: A recombinant adenovirus expressing enhanced yellow fluorescent protein-tagged hCAR (Ad/EYFP-hCAR) was generated as described previously. Hepatocytes cultured in 96-well collagen-coated plates in serum free Williams’ E medium were infected with Ad/EFYP-hCAR (1 μl/well) for 12 h before treatment with the vehicle control, DMSO (0.1%), PB (1 mM), and selected compounds for another 8 h. Subcellular localization of hCAR was visualized using a Nikon (Tokyo, Japan) C1-LU3 instrument based on an inverted Nikon Eclipse TE2000 microscope.

The subject of another data set is CAR, CYP2B6, or CYP3A4. The settings on record: previously known; reference not given; cited from earlier work.
[3] abbreviates: Follow-up Confirmation Potency (IC50), follow-up cherry-pick, 11-point titration.
The mark [4] stands for this setting: Primary Screen Potency (IC50), primary qHTS, 0.1 μM CITCO, 24 h.

`O=C1OC(c2ccc(O)cc2)(c2ccc(O)cc2)c2ccccc21` [phenolphthalein]: the “Identified as hCAR antagonist/deactivator in the qHTS” value at human CAR (hCAR) [1] is reported as “recognized in the current study”.
With `Clc1ccc(Nc2nnc(Cc3ccncc3)c3ccccc23)cc1` [Vatalanib], the “Effect on CYP3A4 mRNA expression” value in the data set on CYP3A4 was “markedly enhanced”. Moreover, in the data set on CYP2B6, the “Effect on CYP2B6 mRNA expression” value was “significantly induced”. Further, the EC50 was determined as 12.6 µM on human CAR (hCAR) [2] (Follow-up Confirmation Potency (EC50), agonist mode, follow-up cherry-pick, 11-point titration) and 10.7 µM on human CAR (hCAR) [2] (Primary Screen Potency (EC50), agonist mode, primary qHTS, 2.5 μM PK11195, 24 h). At human CAR (hCAR) [2] (agonist mode, follow-up cherry-pick, relative to CITCO (100%)), the “Follow-up Confirmation Efficacy” value is 97%. For the same compound, at human CAR (hCAR) [2] (agonist mode, primary qHTS, relative to CITCO Emax (100%)), the “Primary Screen Efficacy” value is reported as 68%.
As for `O=c1[nH]c(=O)n([C@H]2C[C@H](O)[C@@H](CO)O2)cc1C(F)(F)F` [Trifluridine], in the data set on HepG2-CYP2B6-hCAR cells, the “Cytotoxicity (activity call)” value is given as “Inactive”. For the same compound, the “Effect on basal and RIF-induced PXR activity” value on hPXR is reported as “no effects on either basal or RIF-induced hPXR activation”. Further, in the data set on CYP2B6, the “Effect on CYP2B6 mRNA expression” value is “moderately induced”. The half-maximal inhibitory concentration (IC50) came out at 4.5 µM on human CAR (hCAR) [1] (setting [3]) and 6.7 µM on human CAR (hCAR) [1] (setting [4]). Further, the “Follow-up Confirmation Efficacy” value at human CAR (hCAR) [1] (follow-up cherry-pick) is recorded as -73%.
For `CCC1(c2ccccc2)C(=O)NC(=O)NC1=O` [PB, phenobarbital], the “Nuclear localization of EYFP-hCAR” value on EYFP-hCAR was 99%.
As for `C[C@H]1O[C@@H](O[C@H]2[C@@H](O)C[C@H](O[C@H]3[C@@H](O)C[C@H](O[C@H]4CC[C@@]5(C)[C@H](CC[C@@H]6[C@@H]5CC[C@]5(C)[C@@H](C7=CC(=O)OC7)CC[C@]65O)C4)O[C@@H]3C)O[C@@H]2C)C[C@H](O)[C@@H]1O` [Digitoxin], the “Cytotoxicity (activity call)” value in the data set with HepG2-CYP2B6-hCAR cells is “Inactive”. Further, the IC50 was 0.29 µM on human CAR (hCAR) [1] (setting [3]) and 0.08 µM on human CAR (hCAR) [1] (setting [4]). Besides, the “Follow-up Confirmation Efficacy” value at human CAR (hCAR) [1] (follow-up cherry-pick) is given as -98%. Further, the “Primary Screen Efficacy” value on human CAR (hCAR) [1] (primary qHTS) was -76%.
`Cc1c(O)cccc1C(=O)N[C@@H](CSc1ccccc1)[C@H](O)CN1C[C@H]2CCCC[C@H]2C[C@H]1C(=O)NC(C)(C)C` [Nelfinavir]: the “Cytotoxicity (activity call)” value in the data set on HepG2-CYP2B6-hCAR cells is given as “Inactive”. In addition, the “Effect on CYP3A4 mRNA expression” value in the data set on CYP3A4 is “negligible effect”. Also, the “Effect on basal and RIF-induced PXR activity” value at hPXR is on record as “induced hPXR activation to an extent closer to that of RIF”. Moreover, the half-inhibitory concentration (IC50) was 11 µM on human CAR (hCAR) [1] (setting [3]) and 9.52 µM at human CAR (hCAR) [1] (setting [4]). Moreover, the “Follow-up Confirmation Efficacy” value at human CAR (hCAR) [1] (follow-up cherry-pick) is listed as -101%. Also, the “Primary Screen Efficacy” value on human CAR (hCAR) [1] (primary qHTS) is on record as -88%.
On to `Clc1ccccc1C(c1ccccc1)(c1ccccc1)n1ccnc1` [clotrimazole], for which, on human CAR (hCAR) [1], the “Identified as hCAR antagonist/deactivator in the qHTS” value is “recognized in the current study”.
Take `CO[C@@]12[C@H](COC(N)=O)C3=C(C(=O)C(C)=C(N)C3=O)N1C[C@@H]1N[C@@H]12` [Mitomycin C]: the “Cytotoxicity (activity call)” value in the data set on HepG2-CYP2B6-hCAR cells is “Inactive”. In the data set on CAR, CYP2B6, or CYP3A4, the “Known modulator of CAR, CYP2B6, or CYP3A4?” value is listed as “PXR deactivator”. The 50% inhibitory concentration (IC50) at human CAR (hCAR) [1] (setting [3]) came out at 0.75 µM; at human CAR (hCAR) [1] (setting [4]) it was 0.43 µM. Moreover, the “Follow-up Confirmation Efficacy” value at human CAR (hCAR) [1] (follow-up cherry-pick) is given as -110%. For the same compound, the “Primary Screen Efficacy” value at human CAR (hCAR) [1] (primary qHTS) was -91%. In addition, the “Identified as hCAR antagonist/deactivator in the qHTS” value at human CAR (hCAR) [1] was “antagonist of hCAR”.
With `Clc1ccc(-c2nc3sccn3c2C=NOCc2ccc(Cl)c(Cl)c2)cc1` [CITCO, 6-(4-chlorophenyl) imidazo[2,1-b][1,3]-thiazole-5-carbaldehyde-O-(3,4-dichlorobenzyl)oxime], the “Effect on hCAR activity (agonist mode optimization, Fig. 1A)” value at human CAR (hCAR) [2] (PK11195 at 2.5 μM and 5.0 μM, CITCO co-treated with PK11195) is “restored the hCAR activity in a concentration-dependent manner”. Also, at human CAR (hCAR) [1] (PK11195 at varying concentrations, CITCO co-treatment at 75 nM, 100 nM, or 200 nM), the “Effect on hCAR activity (antagonist mode optimization, Fig. 4A)” value was “moderate but concentration-dependent increase of the basal activity of hCAR”.
